From patent US12213970B2, “Pyridinyl sulfonamide derivatives, pharmaceutical compositions and uses thereof” (Boehringer Ingelheim International GmbH, priority 2018, dated 2025) come the findings set out here.

As usually defined, the pIC50 is −log10 of the IC50, conventionally taken in molar units.

One experiment has as its target T1, AOC2 (Homo sapiens, UniProt O75106).
T1 construct: host or cells: HEK293 cells (transient transfection), cell homogenate
T1 sequence (O75106 1-756): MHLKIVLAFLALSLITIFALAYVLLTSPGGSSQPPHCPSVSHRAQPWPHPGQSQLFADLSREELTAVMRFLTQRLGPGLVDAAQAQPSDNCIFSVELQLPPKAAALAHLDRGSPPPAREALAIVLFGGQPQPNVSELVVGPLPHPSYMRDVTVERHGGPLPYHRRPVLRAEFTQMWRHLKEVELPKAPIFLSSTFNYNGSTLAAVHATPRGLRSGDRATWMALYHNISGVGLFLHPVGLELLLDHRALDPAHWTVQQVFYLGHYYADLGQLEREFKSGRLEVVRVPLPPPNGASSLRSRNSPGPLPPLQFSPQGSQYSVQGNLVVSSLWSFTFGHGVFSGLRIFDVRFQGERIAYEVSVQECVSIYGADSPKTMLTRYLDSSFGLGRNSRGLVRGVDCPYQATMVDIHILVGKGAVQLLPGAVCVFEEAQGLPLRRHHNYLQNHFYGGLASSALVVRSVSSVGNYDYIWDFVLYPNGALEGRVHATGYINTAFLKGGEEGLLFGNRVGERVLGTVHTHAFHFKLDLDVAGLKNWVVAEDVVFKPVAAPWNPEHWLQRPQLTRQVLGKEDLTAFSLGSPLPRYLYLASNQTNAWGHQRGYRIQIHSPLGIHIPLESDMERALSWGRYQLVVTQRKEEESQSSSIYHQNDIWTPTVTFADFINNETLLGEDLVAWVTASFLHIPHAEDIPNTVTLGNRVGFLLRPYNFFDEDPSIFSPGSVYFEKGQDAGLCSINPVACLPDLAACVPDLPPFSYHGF
As to the kind of experiment: AOC2 biochemical assay (Amplex Red). The note with it: for ratio IC50 AOC2/IC50 AOC3 (fold less active against AOC2 as compared to AOC3): AOC2 versus AOC3. On the procedure: The Amplex® Red Assay (commercially available from Thermo Fisher Scientific) provides a sensitive method for the detection of H2O2 generated during enzymatic reactions like the amine oxidation catalyzed by AOC2. […] An aliquot of 5 μL of the compound dilution is added to a 96 well plate (flat bottom F, black, GREINER bio-one, #655900) in a DMSO concentration of 2%. […] Cells are cultured for 3 days in EMEM culture medium containing 10% FCS (#04-00-1A, Biological Industries). After washing twice with ice cold PBS, cells are lysed by mechanic homogenation and cleared supernatants are shock frozen in liquid nitrogen and stored at -80° C. For the determination of AOC2 enzymatic activity cell lysates are thawed on ice and 1:1 diluted with reaction buffer. An Aliquot of 45 μL is added to the compound dilution and incubated for 30 min at 37° C. The enzymatic reaction is started with the addition of 50 μL of Amplex® Red reaction mix (final assay concentration: 100 mM sodiumphosphate, 120 μM Amplex® Red reagent (#A22177 Molecular Probes), 1.5 U/mL Horseradish Peroxidase (#P8375 Sigma-Aldrich), 2 mM phenylethylamine (#[…] Sigma-Aldrich), 0.05% Pluronic F-127 (#P3000MP Sigma-Aldrich), pH 7.4, 37° C.). The turnover per time of the substrate is determined directly with a fluorescence reader (Ex 540 nm/Em 590 nm) like Envision 2104 Multilabel Reader (PERKIN ELMER) for 60 min. (cf. Anal Biochem (1997) 253:169-174; Anal Biochem (1997) 253:162-168)

The target in the next experiment is T2, AOC1 (Homo sapiens, UniProt P19801).
T2 construct: purchased R&D Systems 8297-AO-010
T2 sequence (P19801 20-751): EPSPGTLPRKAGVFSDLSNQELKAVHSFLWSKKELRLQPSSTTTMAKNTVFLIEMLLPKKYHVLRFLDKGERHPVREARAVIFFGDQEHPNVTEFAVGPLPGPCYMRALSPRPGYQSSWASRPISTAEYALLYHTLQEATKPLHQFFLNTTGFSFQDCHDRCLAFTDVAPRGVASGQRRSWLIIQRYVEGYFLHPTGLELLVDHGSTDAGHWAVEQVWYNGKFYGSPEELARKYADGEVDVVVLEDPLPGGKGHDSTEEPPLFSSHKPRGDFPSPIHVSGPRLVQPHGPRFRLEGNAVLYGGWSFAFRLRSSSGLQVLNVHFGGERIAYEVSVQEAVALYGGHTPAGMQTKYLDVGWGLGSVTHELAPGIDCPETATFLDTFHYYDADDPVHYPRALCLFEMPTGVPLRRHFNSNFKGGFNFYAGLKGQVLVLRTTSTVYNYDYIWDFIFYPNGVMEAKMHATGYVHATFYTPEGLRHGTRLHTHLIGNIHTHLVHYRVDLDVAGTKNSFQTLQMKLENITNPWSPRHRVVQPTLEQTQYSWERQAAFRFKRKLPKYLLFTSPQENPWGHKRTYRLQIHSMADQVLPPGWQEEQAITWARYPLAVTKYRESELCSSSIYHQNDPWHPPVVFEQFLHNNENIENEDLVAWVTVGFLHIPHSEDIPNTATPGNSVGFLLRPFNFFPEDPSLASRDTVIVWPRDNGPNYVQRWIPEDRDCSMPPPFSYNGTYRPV
As to the kind of experiment: AOC1 biochemical assay (Amplex Red). The method, then: The Amplex® Red Assay (available from Thermo Fisher Scientific) provides a sensitive method for the detection of H2O2 generated during enzymatic reactions like the amine oxidation catalyzed by AOC1. The assay reagent is a colorless substrate (N-acetyl-3,7-dihydroxyphenoxazine) that reacts in a 1:1 stoichiometry with hydrogen peroxide (H2O2) to produce the fluorescent dye resorufin (7-hydroxyphenoxazin-3-one, excitation/emission maxima=570/585 nm).
An aliquot of 3 μL of the compound dilution is added to a 384 well plate (Optiplate, PS, flat bottom F, black, PERKIN ELMER, #6007270) in a DMSO concentration of 6.6%.
An AOC1 enzyme aliquot (#8297-AO-010, R&D Systems) is thawed on ice, diluted in reaction buffer and added in a volume of 7 μL to the wells to give a final assay concentration of 1 ng/well. After incubation of inhibitor and enzyme for 30 minutes at 37° C., the enzymatic reaction is started with the addition of 10 μL of Amplex® Red reaction mix (final assay concentration: 100 mM sodiumphosphate, 120 μM Amplex® Red reagent (#A22177 Molecular Probes), 1.5 U/mL Horseradish Peroxidase (#P8375 Sigma-Aldrich), 200 μM putrescine (#P7505 Sigma-Alrdich), 0.05% Pluronic F-127 (#P3000MP Sigma-Aldrich), pH 7.4, 37° C.).
After an incubation for 30 minutes at 37° C. the turnover of the substrate is determined directly (or after the addition of an excess of an amine-oxidase inhibitor) with a fluorescence reader (Ex 540 nm/Em 590 nm) like Envision 2104 Multilabel Reader (PERKIN ELMER).

Where [1] appears, read: comparison table, read-out: IC50 AOC1.

pIC50: −log10 of the molar value. Where a name gives a salt, the structure may show the parent alone. Read-outs that look alike come from different tables or passages of the source.

On to `COC1CN(S(=O)(=O)c2ccc(OC/C(=C\F)CN)cc2)C1` [Reference compound A, reference compound], for which the “ratio IC50 AOC2/IC50 AOC3 (fold less active against AOC2 as compared to AOC3)” value at AOC2 is 52 fold. Besides, the negative logarithm of the IC50 (pIC50) at AOC2 (comparison table, read-out: IC50 AOC2) was 6.81; on AOC1 (setting [1]), 5.76.
With `CC1(C(=O)O)CCN(S(=O)(=O)c2ccc(OC/C(=C\F)CN)nc2)CC1` [Example 47], the figures for the pIC50 on AOC2 (read-out: AOC2 IC50) and on AOC1 (read-out: AOC1 IC50) were 8.30 and less than 4.30, respectively.
Consider `CN(C)S(=O)(=O)c1ccc(OC/C(=C\F)CN)cc1` [Compound 10 of WO 2013/163675, reference compound], for which the “ratio IC50 AOC2/IC50 AOC3 (fold less active against AOC2 as compared to AOC3)” value on AOC2 is “ca. 270 fold”. The values for the negative-log IC50 (pIC50) on AOC2 (read-out: IC50 AOC2) and at AOC1 (setting [1]) were 6.27 and 6.02, respectively.
On to `CNC(=O)[C@@H]1CCN(S(=O)(=O)c2ccc(OC/C(=C\F)CN)nc2)C1` [Example 14], for which the pIC50 was 6.69 on AOC2 (read-out: AOC2 IC50) and 5.67 on AOC1 (read-out: AOC1 IC50).
For `CCNC(=O)C1(C)CCN(S(=O)(=O)c2ccc(OC/C(=C\F)CN)nc2)CC1` [Example 23] the same measures were 7.10 and less than 4.30.
As to `COC(=O)[C@H]1[C@@H]2CN(S(=O)(=O)c3ccc(OC/C(=C\F)CN)nc3)C[C@@H]21` [Example 35, trans-3-[6-((Z)-2-Aminomethyl-3-fluoro-allyloxy)-pyridine-3-sulfonyl]-3-aza-bicyclo[3.1.0]hexane-6-carboxylic acid methyl ester trifluoroacetate], the values for the pIC50 at AOC2 (read-out: AOC2 IC50) and at AOC1 (read-out: AOC1 IC50) were 6.56 and 5.73, respectively.
For `COC1CCN(S(=O)(=O)c2ccc(OC/C(=C\F)CN)nc2)CC1` [Example 40] the same measures were 7.40 and 6.11.
For `CC(=O)N[C@@H]1CCCN(S(=O)(=O)c2ccc(OC/C(=C\F)CN)nc2)C1` [Example 24] the same measures were 7.14 and 6.00.
For `CC(=O)NC1CCN(S(=O)(=O)c2ccc(OC/C(=C\F)CN)nc2)C1` (stereo not shown) [Example 12] the same measures were 6.68 and 5.50.
`NC/C(=C/F)COc1ccc(S(=O)(=O)N2CCC(CC(N)=O)CC2)cn1` [Example 50]: the pIC50 at AOC2 (read-out: AOC2 IC50) is 7.80; on AOC1 (read-out: AOC1 IC50), 5.27.
For `CNC(=O)C1CCN(S(=O)(=O)c2ccc(OC/C(=C\F)CN)nc2)CC1` [Example 37, trifluoroacetate] the same measures were 6.71 and 5.01.
For `CNC(=O)[C@@]12C[C@@H]1CN(S(=O)(=O)c1ccc(OC/C(=C\F)CN)nc1)C2` [Example 29] the same measures were 7.24 and 5.86.
For `CN(C)C(=O)CC1CCN(S(=O)(=O)c2ccc(OC/C(=C\F)CN)nc2)CC1` [Example 19], the figures for the pIC50 on AOC2 (read-out: AOC2 IC50) and on AOC1 (read-out: AOC1 IC50) were 6.89 and 4.90, respectively.
For `CC1(O)CN(S(=O)(=O)c2ccc(OC/C(=C\F)CN)nc2)C1` [Example 16] the same measures were 6.72 and 6.36.
For `CCNC(=O)CC1CCN(S(=O)(=O)c2ccc(OC/C(=C\F)CN)nc2)CC1` [Example 30] the same measures were 7.36 and 5.05.
For `CCNC(=O)C1CCN(S(=O)(=O)c2ccc(OC/C(=C\F)CN)nc2)CC1` [Example 15] the same measures were 6.69 and 5.33.
Turning to `CC(=O)N1CC(C2CCN(S(=O)(=O)c3ccc(OC/C(=C\F)CN)nc3)CC2)C1` [Example 9], the negative logarithm of the IC50 (pIC50) at AOC2 (read-out: AOC2 IC50) is 6.65; on AOC1 (read-out: AOC1 IC50), 5.34.
As to `NC/C(=C/F)COc1ccc(S(=O)(=O)N2CCCCC2)cn1` [Example 38], the values for the pIC50 on AOC2 (read-out: AOC2 IC50) and at AOC1 (read-out: AOC1 IC50) were 7.21 and 6.63, respectively.
For `CC(=O)NCC1CCN(S(=O)(=O)c2ccc(OC/C(=C\F)CN)nc2)CC1` [Example 28] the same measures were 7.23 and 5.43.
For the compound `CC1(C(=O)NC2CCOCC2)CCN(S(=O)(=O)c2ccc(OC/C(=C\F)CN)nc2)CC1` [Example 48, 1-[6-((Z)-2-Aminomethyl-3-fluoro-allyloxy)-pyridine-3-sulfonyl]-4-methyl-piperidine-4-carboxylic acid (tetrahydropyran-4-yl)-amide trifluoroacetate], the negative-log IC50 (pIC50) at AOC2 (read-out: AOC2 IC50) is 7.14; on AOC1 (read-out: AOC1 IC50), 4.89.
For `CN(C)C(=O)C1CN(S(=O)(=O)c2ccc(OC/C(=C\F)CN)nc2)C1` [Example 25] the same measures were 7.17 and 5.88.
Take `CNC(=O)[C@H]1CCN(S(=O)(=O)c2ccc(OC/C(=C\F)CN)nc2)C1` [Example 11]: the pIC50 on AOC2 (read-out: AOC2 IC50) was 6.68; at AOC1 (read-out: AOC1 IC50), 5.59.
For `NC/C(=C/F)COc1ccc(S(=O)(=O)N2CCC[C@H]2C(N)=O)cn1` [Example 13] the same measures were 6.69 and 6.18.
For `NC/C(=C/F)COc1ccc(S(=O)(=O)N2CCC(CC(=O)O)CC2)cn1` [Example 44, trifluoroacetate] the same measures were 9.00 and less than 4.30.
For `CC1(C(N)=O)CCN(S(=O)(=O)c2ccc(OC/C(=C\F)CN)nc2)CC1` [Example 49] the same measures were 7.68 and 6.26.
Consider `NC/C(=C/F)COc1ccc(S(=O)(=O)N2CC[C@H](C(=O)N3CCOCC3)C2)cn1` [Example 21], for which the negative logarithm of the IC50 (pIC50) is 7.00 on AOC2 (read-out: AOC2 IC50) and 5.39 at AOC1 (read-out: AOC1 IC50).
For `COC(=O)C1CCN(S(=O)(=O)c2ccc(OC/C(=C\F)CN)nc2)CC1` [Example 34] the same measures were 7.11 and 5.62.
Consider `NC/C(=C/F)COc1ccc(S(=O)(=O)N2CCC(C(N)=O)CC2)cn1` [Example 7], for which the results for the pIC50 on AOC2 (read-out: AOC2 IC50) and on AOC1 (read-out: AOC1 IC50) were 6.57 and 5.81, respectively.
